Assay results as given in patent publication US20250009819A1, “NOVEL PROBIOTICS AND USE THEREOF” (PBLBIOLAB CO., LTD., priority 2021, published 2025).

How the values were obtained:
Type in all cases: in vivo, C57BL/6 male mice
gut microbiota = assay: Gut microbiota analysis in animals with ampicillin-induced gut microbiota imbalance (FIG. 1); details: feces, ampicillin-treated mice, result in words
Protocol: First, DNA from feces was isolated using the QIAamp DNA stool mini kit (Qiagen, Germany), pyrosequencing was performed by amplifying barcoded primers (V4 region of the bacterial 16S rRNA gene) to generate amplicons, and 16S rDNA was analyzed by Illumina iSeq 100 (San Diego, CA) to analyze occupancy.
(§1) C57BL/6 male mice (5 weeks old, 19-21 g) were divided (6 mice in each group) and acclimatized to the laboratory for 1 week. To induce intestinal and brain diseases, the mice were orally administered with ampicillin (AP, 100 mg/kg, dissolved in physiological saline) for 3 days. Meanwhile, the normal group was orally administered with 0.1 ml of physiological saline. […] The day following the conclusion of sample administration, the experimental animals were sacrificed, and samples from the brain hippocampus, colon, and spleen were collected. In the Hippocampus, inflammatory indicators, such as IFN-γ, TNF-α, and IL-10, were measured using ELISA. In the colon, intestinal length and inflammatory indicators, such as IFN-γ, TNF-α, and IL-10, were measured. In the spleen, Th1 cells and Treg cells were measured by FACS (Fluorescence-Activated Cell Sorting), and in feces, endotoxin (LPS) and gut microbial communities were measured.

[1] = system: animals with LPS-induced cognitive impairment; assay: Animals with LPS-induced cognitive impairment: improvement effect in spleen; details: LPS-treated mice, 1×10^9 CFU/mouse or sulfasalazine 50 mg/kg once a day for 5 days; for Foxp3 (fold change) / Tbet (fold change) / Tbet/Foxp3: spleen qPCR; for IFN-γ/IL-10 / IL-10 / Interferon (IFN)-γ / NK cell cytoxicity (%) / Phagocytosis (%) / TNF-α / TNF-α/IL-10: spleen
Protocol: (§2) Hippocampus, colon, and spleen tissues were homogenized by adding 1 ml of RIPA buffer (Gibco) containing protease inhibitor cocktail and centrifuged at 4° C., 13000 rpm for 15 min to obtain supernatant. Indicators of this supernatant were measured using an ELISA kit (Ebioscience).
mRNA was isolated from spleen tissue using the RNA Isolation Kit: RNeasy Mini Kit (QIAGEN), converted to cDNA, and qPCR was performed to measure the expression rates of Tbet, Foxp3, and glyceraldehyde 3-phosphate dehydrogenase (GAPDH). The reaction product was first treated at 95° C. for 30 seconds, followed by 38 cycles of 5 seconds at 95° C. and 30 seconds at 72° C. for analysis.
(§3) C57BL/6 male mice (5 weeks old, 19-21 g) were divided (6 mice in each group) and acclimatized to the laboratory for 1 week. To induce intestinal and brain diseases, mice were intraperitoneally administered Escherichia coli-derived LPS (10 μg/kg) once daily for 5 days. […] Experimental animals in the normal group were orally administered with a physiological saline solution, which was used to suspend lactic acid bacteria. The day following the conclusion of sample administration, the experimental animals were sacrificed, and samples from the brain hippocampus, colon, and spleen were collected. In the Hippocampus, inflammatory indicators, such as IFN-γ, TNF-α, and IL-10, were measured using ELISA. In the colon, intestinal length and inflammatory indicators, such as IFN-γ, TNF-α, and IL-10, were measured. In the spleen, Th1 cells and Treg cells were measured by FACS (Fluorescence-Activated Cell Sorting).

[2] = system: animals with antibiotic-induced gut microbiota imbalance; assay: Animals with antibiotic (ampicillin)-induced gut microbiota imbalance: colitis improvement (colon); details: ampicillin (AP)-treated mice, 1×10^9 CFU/mouse orally once a day for 5 days
Protocol: (§4) To 100 mg of colon tissue, 200 μl of 10 mM potassium phosphate buffer (pH 7.0) containing 0.5% hexadecyl trimethyl ammonium bromide was added and homogenized. Then, the supernatant was obtained by centrifugation for 10 minutes at 4° C. and 10,000 g. A volume of 50 μl of the supernatant was added to 0.95 mk of reaction solution (containing 1.6 mM tetramethyl benzidine and 0.1 mM H2O2), reacted at 37° C., and absorbance was monitored over time at 650 nm.
as §2, §1

[3] = system: animals with antibiotic-induced gut microbiota imbalance; assay: Animals with antibiotic (ampicillin)-induced gut microbiota imbalance: cognitive improvement, hippocampus indicators; details: ampicillin (AP)-treated mice, 1×10^9 CFU/mouse orally once a day for 5 days; for IFN-γ/IL-10 / IL-10 / Interferon (IFN)-γ / TNF-a/IL-10 / TNF-α: hippocampus
Protocol: as §2
The Y-shaped maze measurement device is shaped like an alphabetical Y with three arms extending from it, each arm being 25 cm long, 14 cm high, 5 cm wide, and positioned at the same angle. At the end of one arm of the Y-shaped maze, the animal was placed with its head facing out and allowed to freely navigate the arm for 8 minutes. The animal's movements were recorded, and reported as arm entries when the animal entered the arm with its hind paw, and the animal's movement was represented by an alternation, which was defined as one alternation when the animal passed through the three arms in succession. The amount of spontaneous alternation behavior was expressed as a percentage between the actual number of alternations and the maximum possible number of alternations (i.e., the total number of […] minus 2).
The experiment was conducted in a box (40×40×40 cm) made so that the outside could not be seen from the inside. Two objects (A, A′) of the same shape and size were fixedly disposed in a box and the mouse was relocated to start from the center of the box. Then, the number of times the mouse made contact with the two objects was recorded for 10 minutes. After 24 hours, one of the two objects was replaced with a new object (A, B). Then, one original object and one new object were prepared, and the animal's exploration time was measured.
as §1

[4] = system: animals with LPS-induced cognitive impairment; assay: Animals with LPS-induced cognitive impairment: colitis improvement (colon); details: LPS-treated mice, 1×10^9 CFU/mouse or sulfasalazine 50 mg/kg once a day for 5 days
Protocol: as §4, §2, §3

| Substance | imbalance in the beta diversity, Proteobacteria, and Bacteroidetes of gut microbiota (gut microbiota) | Foxp3 (fold change) [1] | Tbet (fold change) [1] | Tbet/Foxp3 [1] | IFN-γ/IL-10 [1] | IL-10 [1] | Interferon (IFN)-γ [1] | NK cell cytoxicity (%) [1] | Phagocytosis (%) [1] | TNF-α [1] | TNF-α/IL-10 [1] | Colon (cm) [2] | IFN-γ/IL-10 [2] | IL-10 [2] | Interferon (IFN)-γ [2] | MPO activity [2] | TNF-a/IL-10 [2] | TNF-α [2] | Exoporation (%) (in NOR task) [3] | Spontaneous alteration (%) (in Y-maze task) [3] | other results |
| --- | --- | --- | --- | --- | --- | --- | --- | --- | --- | --- | --- | --- | --- | --- | --- | --- | --- | --- | --- | --- | --- |
| Bifidobacterium longum NK219 | improved to a balanced form | 1.32 fold change | 1.27 fold change | 1.05 | 1.32 | 8.71 pg/mg | 11.29 pg/mg | 6.93% | 34.55% | 4.00 pg/mg | 0.47 | 5.45 cm | 0.26 | 26.75 pg/mg | 5.84 pg/mg | 14.76 μUnit/mg | 1.16 | 28.27 pg/mg | 83.21% | 70.54% | IFN-γ/IL-10 [3]: 0.48; IL-10 [3]: 50.29 pg/mg; Interferon (IFN)-γ [3]: 24.33 pg/mg; TNF-a/IL-10 [3]: 0.28; TNF-α [3]: 12.43 pg/mg; Colon (cm) [4]: 4.8 cm; IFN-γ/IL-10 [4]: 2.35; IL-10 [4]: 19.56 pg/mg; Interferon (IFN)-γ [4]: 44.72 pg/mg; MPO activity [4]: 4.30 μUnit/mg; TNF-α [4]: 18.59 pg/mg; TNF-α/IL-10 [4]: 0.96 |
| Lactobacillus rhamnosus NK210 | improved to a balanced form | 1.07 fold change | 1.58 fold change | 1.55 | 1.15 | 10.49 pg/mg | 11.92 pg/mg | 7.78% | 36.01% | 4.00 pg/mg | 0.38 | 5.28 cm | 0.31 | 21.31 pg/mg | 5.94 pg/mg | 11.60 μUnit/mg | 1.43 | 22.86 pg/mg | 76.25% | 73.01% | IFN-γ/IL-10 [3]: 0.47; IL-10 [3]: 48.89 pg/mg; Interferon (IFN)-γ [3]: 23.18 pg/mg; TNF-a/IL-10 [3]: 0.26; TNF-α [3]: 13.37 pg/mg; Colon (cm) [4]: 5.0 cm; IFN-γ/IL-10 [4]: 2.50; IL-10 [4]: 21.10 pg/mg; Interferon (IFN)-γ [4]: 44.24 pg/mg; MPO activity [4]: 4.55 μUnit/mg; TNF-α [4]: 20.76 pg/mg; TNF-α/IL-10 [4]: 0.98 |
